Results taken from the supplement of paper PMC10307832.

Key:
Test in all cases: relative viability (nuclei count vs DMSO), 5 days (fraction); higher = more cells survive
[1] = compound: O=S(=O)(c1ccccc1)N(CC(F)(F)F)c1ccc(C(O)(C(F)(F)F)C(F)(F)F)cc1 + Cc1nc(NC(=O)N2CCC[C@H]2C(N)=O)sc1-c1ccnc(C(C)(C)C(F)(F)F)c1 [Alpelisib] (partner 2 µM)
Method in brief: (§1)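 Medians of duplicate plates are given as relative viability. That measure is the nuclei count in treated wells divided by the count in vehicle wells. Counts were taken on 4× images of lung cancer cell lines in 1536-well plates, 5 days after pin-tool dosing the day after seeding with one drug alone or a fixed anchor-drug dose plus five library-drug doses (not always all listed) in √10 steps.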

[2] = compound: C1=CC2=C(C=CC(=C2)C=C3C(=O)NC(=NCC4=CC=CS4)S3)N=C1 [RO-3306] + CC(=O)c1c(C)c2cnc(Nc3ccc(N4CCNCC4)cn3)nc2n(C2CCCC2)c1=O [Palbociclib] (partner 0.5 µM)
Method in brief: as §1

[3] = compound: C1=CC2=C(C=CC(=C2)C=C3C(=O)NC(=NCC4=CC=CS4)S3)N=C1 [RO-3306] + CS(=O)(=O)N1CCN(Cc2cc3nc(-c4cccc5[nH]ncc45)nc(N4CCOCC4)c3s2)CC1 [Pictilisib] (partner 1 µM)
Method in brief: as §1

[4] = compound: O=S(=O)(c1ccccc1)N(CC(F)(F)F)c1ccc(C(O)(C(F)(F)F)C(F)(F)F)cc1 + O=C(c1cc(Cc2n[nH]c(=O)c3ccccc23)ccc1F)N1CCN(C(=O)C2CC2)CC1 [Olaparib] (partner 8 µM)
Method in brief: as §1

Row | Cell Line | relative viability ([1]; first compound 0.8 µM) | relative viability ([1]; first compound 2.53 µM) | relative viability ([1]; first compound 8 µM) | relative viability ([2]; first compound 0.01 µM) | relative viability ([2]; first compound 0.03162 µM) | relative viability ([2]; first compound 0.1 µM) | relative viability ([2]; first compound 0.3162 µM) | relative viability ([2]; first compound 1 µM) | relative viability ([3]; first compound 0.01 µM) | relative viability ([3]; first compound 0.03162 µM) | relative viability ([3]; first compound 0.1 µM) | relative viability ([3]; first compound 0.3162 µM) | relative viability ([3]; first compound 1 µM) | relative viability ([4]; first compound 0.8 µM) | relative viability ([4]; first compound 2.53 µM) | relative viability ([4]; first compound 8 µM)
1 | 201T | 1 | 0.915 | 0.987 | 0.31 | 0.342 | 0.325 | 0.36 | 0.367 | 0.671 | 0.616 | 0.668 | 0.663 | 0.559 | 0.815 | 0.793 | 0.819
2 | A549 | 0.643 | 0.779 | 0.677 |  |  |  |  |  | 0.551 | 0.485 | 0.477 | 0.504 | 0.323 | 0.299 | 0.278 | 0.204
3 | A-427 | 1.11 | 1.02 | 1.02 | 0.502 | 0.513 | 0.545 | 0.57 | 0.516 | 0.707 | 0.735 | 0.638 | 0.781 | 0.483 | 0.807 | 0.673 | 0.778
4 | ABC-1 | 0.936 | 0.916 | 1.1 | 0.869 | 0.406 | 0.66 | 0.799 | 0.458 | 0.688 | 0.725 | 0.712 | 0.732 | 0.866 |  | 0.763 | 0.638
5 | BEN | 1.13 | 0.953 | 0.902 | 0.49 | 0.438 | 0.458 | 0.473 | 0.476 | 0.559 | 0.487 | 0.532 | 0.697 | 0.623 | 0.889 | 0.875 | 0.876
6 | CAL-12T | 1.52 | 1.13 | 1.02 | 0.67 | 0.396 | 0.385 | 0.388 | 0.475 | 0.359 |  |  | 0.411 | 0.462 | 0.686 | 0.616 | 0.591
7 | COR-L23 | 0.846 | 0.8 | 0.867 | 0.286 | 0.252 | 0.293 | 0.297 | 0.257 | 0.816 |  | 0.835 | 0.77 | 0.67 | 0.357 | 0.35 | 0.34
8 | COR-L 105 | 1.13 | 0.848 | 0.989 | 0.392 | 0.408 | 0.412 | 0.404 | 0.385 | 0.355 | 0.364 | 0.361 | 0.47 | 0.366 | 0.69 | 0.602 | 0.546
9 | Calu-6 | 0.82 | 0.77 | 0.885 |  |  |  |  |  | 1.1 | 0.97 | 0.934 | 0.866 | 0.91 | 0.562 | 0.58 | 0.571
10 | ChaGo-K-1 |  |  |  | 1.04 | 0.854 | 0.911 | 0.871 | 0.578 | 0.692 | 0.701 | 0.449 | 0.69 | 0.49 | 0.466 | 0.427 | 0.388
11 | EBC-1 | 0.572 | 0.474 | 0.547 |  |  |  |  |  | 0.454 | 0.327 | 0.397 | 0.448 | 0.286 | 0.692 | 0.584 | 0.597
12 | EKVX | 0.892 | 0.803 | 0.955 | 0.346 | 0.37 | 0.332 | 0.447 | 0.393 | 0.402 | 0.362 | 0.449 | 0.498 | 0.431 | 0.836 | 0.757 | 0.661
13 | EMC-BAC-2 | 0.874 | 0.754 | 0.757 | 0.501 | 0.461 | 0.514 | 0.516 | 0.494 | 0.503 | 0.511 | 0.54 | 0.531 | 0.483 | 0.471 | 0.47 | 0.483
14 | EPLC-272H | 0.818 | 1.04 | 0.681 | 0.254 |  | 0.342 | 0.304 | 0.302 | 0.3 | 0.211 | 0.275 | 0.255 | 0.287 | 0.888 | 0.859 | 0.645
15 | H3255 | 0.783 | 0.632 | 0.569 | 0.299 | 0.373 | 0.294 | 0.305 | 0.321 | 0.556 | 0.486 | 0.481 | 0.491 | 0.56 | 0.533 | 0.488 | 0.439
16 | HARA | 0.647 | 0.721 | 0.539 | 0.207 |  | 0.265 | 0.24 | 0.311 | 0.367 | 0.247 | 0.457 | 0.394 | 0.358 | 0.995 |  | 0.678
17 | HCC-15 | 0.908 | 0.809 | 0.823 | 0.787 | 0.606 | 0.677 | 0.669 | 0.742 | 0.707 | 0.603 | 0.717 | 0.815 | 0.542 | 0.737 | 0.581 | 0.644
18 | HCC-44 | 0.913 | 0.946 | 0.927 | 1.01 | 0.932 | 0.993 | 0.96 | 0.952 | 0.581 | 0.524 | 0.619 | 0.689 | 0.557 | 0.932 | 0.969 | 0.999
19 | HCC-78 | 0.349 | 0.298 | 0.289 | 0.483 | 0.518 | 0.504 | 0.548 | 0.403 | 0.198 | 0.213 | 0.209 | 0.224 | 0.229 | 0.908 | 0.816 | 0.765
20 | HCC-366 | 0.469 | 0.436 | 0.428 | 0.531 | 0.395 | 0.381 | 0.382 | 0.316 | 0.118 | 0.0988 | 0.149 | 0.214 | 0.106 | 0.414 | 0.37 | 0.281
21 | HCC-827 | 1.05 | 1.05 | 0.842 | 0.462 | 0.477 | 0.461 | 0.54 | 0.54 | 0.913 | 0.983 | 0.878 | 1.07 | 1.05 | 0.612 | 0.627 | 0.63
